Reference: article PMC4336144, “Screening the Medicines for Malaria Venture "Malaria Box" against the Plasmodium falciparum Aminopeptidases, M1, M17 and M18” (PLoS ONE, 2015)
pEC50, pKi: −log10 of the molar value. Read-outs that look alike come from different tables or passages of the source.

How the values were obtained:
PfA-M1 [1] = biological target: T1, PfA-M1 (Plasmodium falciparum, UniProt O96935); assay: Secondary screening against individual enzyme; format: biochemical; conditions: 100 μM compound; for PfA-M1 activity, single dose secondary screen: n = 1; for PfA-M1 activity retained in the presence of compound: n = 3, of total enzyme activity
T1 construct: made in house; host or cells: Escherichia coli
T1 sequence (O96935 195-1085 limits assumed): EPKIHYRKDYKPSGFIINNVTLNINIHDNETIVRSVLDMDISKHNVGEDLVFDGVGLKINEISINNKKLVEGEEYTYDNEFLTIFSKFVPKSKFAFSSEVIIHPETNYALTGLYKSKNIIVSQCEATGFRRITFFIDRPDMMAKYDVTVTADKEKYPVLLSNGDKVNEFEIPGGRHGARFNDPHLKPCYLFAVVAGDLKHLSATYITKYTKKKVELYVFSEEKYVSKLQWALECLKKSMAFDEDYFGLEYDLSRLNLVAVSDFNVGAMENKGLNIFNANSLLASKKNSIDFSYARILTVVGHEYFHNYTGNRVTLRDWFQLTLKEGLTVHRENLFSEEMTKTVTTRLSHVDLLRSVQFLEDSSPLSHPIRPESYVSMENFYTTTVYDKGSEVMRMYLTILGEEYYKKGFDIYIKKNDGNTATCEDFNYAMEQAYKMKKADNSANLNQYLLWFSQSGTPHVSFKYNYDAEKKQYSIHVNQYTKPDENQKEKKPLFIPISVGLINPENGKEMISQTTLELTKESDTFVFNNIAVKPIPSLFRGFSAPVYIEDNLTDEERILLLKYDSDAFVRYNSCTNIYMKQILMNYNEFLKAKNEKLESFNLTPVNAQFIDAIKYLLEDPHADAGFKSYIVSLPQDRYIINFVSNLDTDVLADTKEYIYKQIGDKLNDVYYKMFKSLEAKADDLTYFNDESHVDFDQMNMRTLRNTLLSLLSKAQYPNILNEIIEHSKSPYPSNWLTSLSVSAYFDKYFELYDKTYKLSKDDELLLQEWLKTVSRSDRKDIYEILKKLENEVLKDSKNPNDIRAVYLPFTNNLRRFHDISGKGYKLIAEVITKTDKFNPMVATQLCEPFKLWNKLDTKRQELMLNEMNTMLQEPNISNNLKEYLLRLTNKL
Method: (§1) Aminopeptidase activity of each individual enzyme in the presence of a single MMV compound (100 μM) was determined using Leu-Mec for both PfA-M1 (15 nM) and PfA-M17 (80 nM) or Glu-pNA for PfM18AAP (125 nM). Reactions were carried out in 96-well microtitre plates (200 μl total volume) in 50 mM Tris-HCl pH 8.0, 2 mM CoCl2 at 37°C. Following a 10 min incubation (enzyme and compound) at 37°C, reactions were initiated by addition of enzyme specific substrate. Progress curves were monitored using a FLUOstar Omega multimode reader (BMG LabTech) for 1.5 h at 37°C. As activity references, individual enzyme 'no compound' controls and 'positive inhibitor' controls were included in each 96 well plate assay. We applied a cut-off of < 10% activity in the presence of 100 μM compound for selection to the next phase. Compounds that were selected to proceed were then used in further assays to obtain n = 3.

PfA-M17 [2] = biological target: T2, PfA-M17 (Plasmodium falciparum, UniProt Q8IL11); assay: Secondary screening against individual enzyme; format: biochemical; conditions: 100 μM compound; for PfA-M17 activity, single dose secondary screen: n = 1
T2 construct: made in house; host or cells: Escherichia coli
T2 sequence (Q8IL11 84-605 limits assumed): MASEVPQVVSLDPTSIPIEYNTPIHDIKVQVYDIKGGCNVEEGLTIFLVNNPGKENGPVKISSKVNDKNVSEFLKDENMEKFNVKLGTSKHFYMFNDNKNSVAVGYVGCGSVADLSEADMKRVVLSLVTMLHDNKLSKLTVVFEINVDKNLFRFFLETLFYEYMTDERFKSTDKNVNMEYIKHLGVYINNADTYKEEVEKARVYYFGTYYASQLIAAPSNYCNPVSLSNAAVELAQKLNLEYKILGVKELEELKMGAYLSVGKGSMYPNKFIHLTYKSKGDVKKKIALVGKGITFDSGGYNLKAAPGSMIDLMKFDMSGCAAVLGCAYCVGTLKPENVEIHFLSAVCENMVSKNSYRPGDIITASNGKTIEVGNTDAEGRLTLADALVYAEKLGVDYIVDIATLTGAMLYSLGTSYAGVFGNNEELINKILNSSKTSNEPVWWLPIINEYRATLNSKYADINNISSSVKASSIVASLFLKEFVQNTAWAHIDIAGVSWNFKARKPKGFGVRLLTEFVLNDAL
Method: as §1

PfA-M1 and/or PfA-M17 = assay: Multiplex primary screen, fluorogenic substrate Leu-Mec; format: biochemical, Plasmodium falciparum; conditions: 100 μM compound, multiplex assay
Method: A multiplex enzyme assay was developed to complete the primary screen of 400 compounds that were provided to us by MMV and SCYNEXIS. Combined PfMAP (15 nM PfA-M1; 80 nM PfA-M17 and 125 nM PfM18AAP) aminopeptidase activity in the presence of a single MMV compound (100 μM solubilized in 100% dimethyl sulfoxide, DMSO, final DMSO concentration in assay = 10%) was determined by simultaneous measurement of the release of the fluorogenic leaving group, -NHMec, from L-Leucine-7-amido-4-methylcoumarin-HCl (Leu-Mec) (Sigma) as well as the hydrolysis of p-nitroanilide from the chromogenic substrate, L-Glutamic acid p-nitroanilide (Glu-pNA) (Sigma). The fluorogenic substrate records the combined activity of PfA-M1 and PfA-M17 while the p-nitroanilide substrate is specific for PfM18AAP. Reactions were carried out in 96-well microtitre plates (200 μL total volume) in 50 mM Tris-HCl pH 8.0, 2 mM CoCl2 at 37°C. Following a 10 min incubation (multi-enzyme and single compound) at 37°C, reactions were initiated by addition of both fluorogenic and chromagenic substrates. Progress curves were monitored using a FLUOstar Omega multimode reader (BMG LabTech) for 1.5 h at 37°C. As activity references, individual enzyme and multiple enzyme 'no compound' controls and 'positive inhibitor' controls (with 10% DMSO) were included in each 96 well plate assay.

[3] = system: asexual blood stage of 3D7 Pf; conditions: cited from earlier work
PfA-M1 [4] = biological target: T1, PfA-M1; assay: Determination of Ki values (Dixon plots, H-Leu-NHMec); format: biochemical
Method: (§2) MMV020750 was purchased from InterBioScreen (catalog number STOCK2S-51608) and MMV666023 was purchased from ChemBridge (catalog number 5566248). The MMV020750 derivatives 1, 2 and 3 were purchased from Ambinter (catalog numbers AMB425981, AMB2311364 and AMB8506251 respectively). 4-(4,5-Diphenyl-1H-imidazol-2-yl)benzoic acid (4) was purchased from TCI Chemicals, while 4-(4,5-diphenyl-1H-imidazol-2-yl)-N-hydroxybenzamide (5) was prepared from 4 as described (S1 Methods). Aminopeptidase activity of both PfA-M1 and PfA-M17 enzymes was determined by measuring the release of the fluorogenic leaving group, NHMec, from the fluorogenic peptide L-Leucine-7-amido-4-methylcoumarin hydrochloride (H-Leu-NHMec) (Sigma L2145). The assay protocol devised by Stack CM, et al, (J. Biol Chem, 2007) was modified and used, with the reactions were carried out at 37°C and monitored using a spectrofluorometer (BMG FLUOstar) with excitation at 355 nm and emission at 460 nm. Each enzyme was pre-incubated in 50 mM Tris pH 8.0, 2 mM CoCl2; 5% DMSO with each inhibitor for 10 min prior to the addition of substrate. Inhibitor concentration was assayed between 0 and 500 μM final for each compound, and repeated over a narrowed range if necessary. The fluorescence signal was monitored until a final steady state velocity, V, was obtained. The K i values were then evaluated using Dixon plots of 1/V versus inhibitor concentration while the substrate concentration was maintained lower than that of the Km of the enzyme.

PfA-M17 [5] = biological target: T2, PfA-M17; assay: as above; format: biochemical; conditions: for pKi: Dixon plot
Method: as §2
This was a particular problem with the PfA-M17 enzyme assays where we noted that at higher concentrations of 4, a decrease in fluorescence was observed. We hypothesise that this is a result of PfA-M17 binding to the compound and quenching the intrinsic fluorescence. […] We therefore chose to analyse a reduced concentration range for 4.

[6] = ref Avery, read-out: EC50 (Avery)
[7] = ref ChEMBL, read-out: EC50 (ChEMBL)
[8] = Dixon plot, read-out: Ki PfA-M1

Row | Compound | PfA-M1 activity, single dose secondary screen (PfA-M1 [1]) | PfA-M1 activity retained in the presence of compound (PfA-M1 [1]) | PfA-M17 activity, single dose secondary screen (PfA-M17 [2]) | PfA-M17 activity retained in the presence of compound (PfA-M17 [2]; n = 3) | Activity (PfA-M1 and/or PfA-M17) (PfA-M1 and/or PfA-M17) | % Pf Inhibition @ 5 μM [3] | pEC50 [3, 6] | pEC50 [3, 7] | mode of inhibition of PfA-M1 (PfA-M1 [4]) | pKi (PfA-M1 [4]; [8]) | selectivity for PfA-M1 over M17 (PfA-M1 [4]; from Ki values) | reduction of PfA-M1 activity (PfA-M1 [1]; n = 3) | reduction of PfA-M17 activity (PfA-M17 [2]; n = 3) | mode of inhibition of PfA-M17 (PfA-M17 [5]) | pKi (PfA-M17 [5]) | pKi (PfA-M1 [4]; Dixon plot including the 500 uM values, read-out: Ki (with all values) PfA-M1) | selectivity for PfA-M17 over M1 (PfA-M17 [5]; from Ki values)
1 | CC(C)C[C@H](NC(=O)[C@@H](O)[C@H](N)Cc1ccccc1)C(=O)O [Bestatin, reference compound] | no neutral aminopeptidase activity is detectable | no neutral aminopeptidase activity is detectable | no neutral aminopeptidase activity is detectable | no neutral aminopeptidase activity is detectable |  |  |  |  |  |  |  |  |  |  |  |  | 
2 | O=C(Nc1ccc(-c2nc3ccccc3[nH]2)cc1)c1ccc(Cl)c(Cl)c1 [MMV665840] | false positive |  | false positive |  | R |  |  |  |  |  |  |  |  |  |  |  | 
3 | c1ccc(Cn2c(/N=N/c3c(Nc4ccccc4)ccc4ccccc34)nc3ccccc32)cc1 [MMV666023] |  |  |  |  | R | 96% | 7.40 | 5.57 | competitive | 5.35 | 5 fold | 95% | 70% | competitive | 4.64 |  | 
4 | COc1cc(-c2nc(-c3ccccc3)c(-c3ccccc3)[nH]2)cc(OC)c1O [MMV020750] |  | 75% |  |  | R | 97% | 5.92 | 6.10 | competitive | 4.12 |  |  | 95% | competitive | 4.92 | 3.65 | 6 fold
